Experimental data published in patent publication US11523610B2, “Regulating plant growth using a diapocarotenoid” (King Abdullah University of Science and Technology, priority 2018, dated 2022).

How the values were obtained:
[1] = test system: Arabidopsis seedlings (anchor roots); test: ANR formation under OH-Apo10′ and OH-Apo12′ treatment; assay type: in vivo; conditions: 10 μM, counted at 10 DAG
From the text: FIGS. 21A-D show a diapocarotenoid precursor (OH-Apo12′) is converted into anchorene in plants, according to one or more embodiments of the present disclosure. […] (B) is a histogram showing quantification of achorene in mock, OH-Apo10′, and OH-Apo12′ fed Arabidopsis seedlings. (C) is a histogram showing ANR emergence in mock, OH-Apo10′, and OH-Apo12′ fed seedlings. […] For B and C, two-tailed Student's t-test, **P<0.01, *** P<0.001; in B, n=4; in C data are presented as mean ±SD from 3 independent replicates; in B, 12-day-old seedlings were incubated with indicated chemicals for 6 hours and 20 μM OH-Apol10′ and OH-Apo12′ were used; and C, 10 μM OH-Apol ′ and OH-Apo12′ were used and the ANR No./plant was counted at 10 DAG. For the quantification of ANR formation under OH-Apo10′ and OH-Apo12′ treatment conditions, the sterilized Arabidopsis seeds were exposed to light for 24 hours first, and then plated to 1/2 MS plates with indicated chemicals; the plates were kept under darkness (22° C.) for another two days and then exposed to long day light conditions for another 7 days to count the ANR emergence.

[2] = LC-MS quantification of anchorene in Arabidopsis tissues; conditions: 12-day-old seedlings incubated 6 hours with 20 μM; compared to control and OH-APO10′
Protocol: About 30 mg (30-40 mg) of freeze-dried and ground Arabidopsis seedlings tissues were extracted using 1 mL of acetonitrile with anti-oxidant [0.1% butylated hydroxytoluene (BHT)] for 15 min in an ultrasonic bath (Branson® 5510EDTH, 25° C., 15 min), followed by centrifugation for 8 min at 13000 rpm at 4° C. The collected supernatant was dried using a concentrator (Labconco RapidVap® System). The extract was derivatized (SCHEME 3) with 50 μL of derivatization solution containing 5 mg/mL derivatization reagent (N^2,N^2,N^4,N^4-tetraethyl-6-hydrazineyl-1,3,5-triazine-2,4-diamine) (Chemspace) and 1% formic acid in methanol at 37° C. for 15 min. Then the sample solution was diluted to 150 μL with 1% formic acid in methanol and filtered by using 0.22 μm filter before LC-MS analysis.
The quantitative analysis of derivative anchorene were carried out on HPLC-Q-Trap MS/MS. Chromatographic separation was achieved on an Acquity UPLC CSH C18 column (50×2.1 mm; 1.7 μm; Waters) using a mobile phase consisting of water: acetonitrile (95:5, v:v, A) and pure acetonitrile (B), both containing 0.1% formic acid. A gradient was applied, starting with 10% B and increasing to 40% B over 5 min. Then 15% B was increased
within 10 min followed by an increase of 45% B over 2 min. And then 100% B was maintained for 10 min. To equilibrate the column before the next run, the mobile phase was adjusted back to 10% B in 1 min and this concentration was maintained for 8 min prior to the next sample injection. A flow rate of 0.15 mL/min and a column temperature of 40° C. were maintained throughout the run. The eluent of the column was introduced to the mass spectrometer using turbo spray ion source in positive mode. The injection volume was 10 μL. The conditions of the mass spectrometer were set as following: curtain gas: 30; ion spray voltage: 5 kV; temperature: 400° C.; ion source gas 1: 30; ion source gas 2: 40; declustering potential, 55; entrance potential: 10; collision energy: 25; collision cell exit potential: 10. […]

CC(C=CC=O)=CC=CC=C(C)C=CC=C(C)C=CC1=C(C)CC(O)CC1(C)C (stereo not drawn) [OH-APO10′, reference compound]
anchor roots formed compared to mock (ANR No./plant) [1]: not

CC1=C(/C=C/C(C)=C/C=C/C(C)=C/C=C/C=C(\C)C=O)C(C)(C)CC(O)C1 (stereo not drawn) [OH-APO12′, all-trans-3-OH-β12′-carotenal]
anchorene content of fed seedlings [2]: much more anchorene | anchor roots formed compared to mock (ANR No./plant) [1]: formed more anchor routes
